In publication PMC12396409, “Screening and hit evaluation of a microbial metabolite library against the pathogenic Plasmodium falciparum and Toxoplasma gondii parasites” (International Journal for Parasitology: Drugs and Drug …, 2025):
Like-named read-outs stand apart in the source and are kept apart here.

Columns and labels:
[1] = system: P. falciparum 3D7 parasites; experiment: P. falciparum growth inhibition assay, 1-cycle (72 h treatment), SYBR DNA staining (library screen at 2 μg/mL and dose-response); format: cell-based, Plasmodium falciparum; settings: for activity at 2 µg/mL: Plasmodium falciparum
[2] = system: T. gondii RH strain (RH-Tub-eYFP) tachyzoites; experiment: microbe, parasite or virus in culture; format: cell-based, Toxoplasma gondii
[3] = system: P. falciparum 3D7 parasites; experiment: P. falciparum growth inhibition assay, 2-cycle (120 h treatment), delayed-death screen and dose-response; format: cell-based, Plasmodium falciparum; settings: for activity at 2 µg/mL: Plasmodium falciparum
[4] = P. falciparum, 72 h, screen at 2 μg/mL, replicate 1
[5] = P. falciparum, 72 h, screen at 2 μg/mL, replicate 2
[6] = T. gondii, 72 h, screen at 2 μg/mL, replicate 1
[7] = T. gondii, 72 h, screen at 2 μg/mL, replicate 2
[8] = P. falciparum, 120 h, screen at 2 μg/mL, replicate 1
[9] = P. falciparum, 120 h, screen at 2 μg/mL, replicate 2
[10] = library screen at 2 μg/mL, 72 h, % growth, replicate 1
[11] = library screen at 2 μg/mL, 72 h, % growth, replicate 2
[12] = library screen at 2 μg/mL, 120 h, % growth, replicate 2
[13] = library screen at 2 μg/mL, 120 h, % growth, replicate 1
[14] = Toxoplasma gondii, 72 h, T. gondii, 72 h, screen at 2 μg/mL, replicate 1; read-out: Tg_72h_%Growth_Rep1
[15] = Toxoplasma gondii, 72 h, T. gondii, 72 h, screen at 2 μg/mL, replicate 2; read-out: Tg_72h_%Growth_Rep2
[16] = 3D7, library screen at 2 μg/mL, 72 h, % growth, replicate 1, read-out: Pf_72h_%Growth_Rep1
[17] = 3D7, library screen at 2 μg/mL, 72 h, % growth, replicate 2, read-out: Pf_72h_%Growth_Rep2
[18] = 3D7, library screen at 2 μg/mL, 120 h, % growth, replicate 1, read-out: Pf_120h_%Growth_Rep1
[19] = 3D7, library screen at 2 μg/mL, 120 h, % growth, replicate 2, read-out: Pf_120h_%Growth_Rep2

CC[C@H]1OC(=O)[C@H](C)[C@@H](O[C@H]2C[C@@](C)(OC)[C@@H](O)[C@H](C)O2)[C@H](C)[C@@H](O[C@@H]2O[C@H](C)C[C@H](NC)[C@H]2O)[C@](C)(O)C[C@@H](C)C(=O)[C@H](C)[C@@H](O)[C@]1(C)O [Demethylerythromycin A, N-]
Pf_72h_%Growth_Rep1 [1, 4]: 87.44% | Pf_72h_%Growth_Rep2 [1, 5]: 93.22% | Tg_72h_%Growth_Rep1 [2, 6]: 111.33% | Tg_72h_%Growth_Rep2 [2, 7]: 103.06% | Pf_120h_%Growth_Rep1 [3, 8]: 108.40% | Pf_120h_%Growth_Rep2 [3, 9]: 97.63%

CS[C@H]1SC[C@H]2C(=O)N(C)[C@@H](C(C)C)C(=O)OC[C@@H](NC(=O)c3cnc4ccccc4n3)C(=O)N[C@@H](C)C(=O)N(C)[C@@H]1C(=O)N(C)[C@@H](C(C)C)C(=O)OC[C@@H](NC(=O)c1cnc3ccccc3n1)C(=O)N[C@@H](C)C(=O)N2C [Quinomycin A]
Pf_72h_%Growth_Rep1 ([1]; P. falciparum, 72 h, parasite screen 2 μg/mL, % growth, replicate 1): 8.36% | Pf_72h_%Growth_Rep2 ([1]; P. falciparum, 72 h, parasite screen 2 μg/mL, % growth, replicate 2): -0.61% | Tg_72h_%Growth_Rep1 ([2]; T. gondii, 72 h, parasite screen 2 μg/mL, % growth, replicate 1): -0.75% | Tg_72h_%Growth_Rep2 ([2]; T. gondii, 72 h, parasite screen 2 μg/mL, % growth, replicate 2): -0.09% | Pf_120h_%Growth_Rep1 ([3]; P. falciparum, 120 h, parasite screen 2 μg/mL, % growth, replicate 1): 15.40% | Pf_120h_%Growth_Rep2 ([3]; P. falciparum, 120 h, parasite screen 2 μg/mL, % growth, replicate 2): -11.60%

O=C1c2c(O)cc(O)cc2OC1(O)Cc1ccc(O)c(O)c1 (stereo not drawn) [Alphitonin]
Pf_72h_%Growth_Rep1 [1, 10]: 88.31% | Pf_72h_%Growth_Rep2 [1, 11]: 93.84% | Tg_72h_%Growth_Rep1 [2, 10]: 106.55% | Tg_72h_%Growth_Rep2 [2, 11]: 96.34% | Pf_120h_%Growth_Rep1 [3]: 96.34% | Pf_120h_%Growth_Rep2 [3, 12]: 94.83%

CC[C@H]1OC(=O)[C@H](C)[C@@H](O[C@H]2C[C@@](C)(O)[C@@H](O)[C@H](C)O2)[C@H](C)[C@@H](O[C@@H]2O[C@H](C)C[C@H](N(C)C)[C@H]2O)[C@](C)(O)C[C@@H](C)C(=O)[C@H](C)[C@@H](O)[C@]1(C)O [Erythromycin C]
Pf_72h_%Growth_Rep1 [1, 10]: 81.84% | Pf_72h_%Growth_Rep2 [1, 11]: 74.13% | Tg_72h_%Growth_Rep1 [2, 10]: 45.84% | Tg_72h_%Growth_Rep2 [2, 11]: 43.52% | Pf_120h_%Growth_Rep1 [3, 13]: 93.33% | Pf_120h_%Growth_Rep2 [3, 12]: 77.67%

CC[C@H](C)C(=O)O[C@H]1C[C@@H](C)C=C2C=C[C@H](C)[C@H](CC[C@@H]3C[C@@H](O)CC(=O)O3)[C@H]21 [BIA-L1264]
Pf_72h_%Growth_Rep1 ([1]; P. falciparum 3D7, 72 h, library screen at 2 μg/mL, % growth, replicate 1): 70.29% | Pf_72h_%Growth_Rep2 ([1]; P. falciparum 3D7, 72 h, library screen at 2 μg/mL, % growth, replicate 2): 102.36% | Tg_72h_%Growth_Rep1 ([2]; T. gondii RH, 72 h, library screen at 2 μg/mL, % growth, replicate 1): 3.18% | Tg_72h_%Growth_Rep2 ([2]; T. gondii RH, 72 h, library screen at 2 μg/mL, % growth, replicate 2): 2.54% | Pf_120h_%Growth_Rep2 [3]: 93.18% | Pf_120h_%Growth_Rep1 ([3]; P. falciparum 3D7, 120 h, library screen at 2 μg/mL, % growth, replicate 1): 89.66%

C/C=C/C1=CC(=O)[C@@H](O)[C@@H]1O [Terrein]
activity at 2 µg/mL ([1]; 3D7, P. falciparum, 72 h, screen at 2 μg/mL, replicate 1, read-out: Pf_72h_%Growth_Rep1): 77.7% | activity at 2 µg/mL ([1]; 3D7, P. falciparum, 72 h, screen at 2 μg/mL, replicate 2, read-out: Pf_72h_%Growth_Rep2): 91.3% | percent parasite growth at 2 µg/mL [2, 14]: 125% | percent parasite growth at 2 µg/mL [2, 15]: 83.6% | activity at 2 µg/mL ([3]; 3D7, P. falciparum, 120 h, screen at 2 μg/mL, replicate 1, read-out: Pf_120h_%Growth_Rep1): 82% | activity at 2 µg/mL ([3]; 3D7, P. falciparum, 120 h, screen at 2 μg/mL, replicate 2, read-out: Pf_120h_%Growth_Rep2): 46.1%

CO[C@H]1C[C@H](O[C@@H]2/C(C)=C/C[C@@H]3C[C@@H](C[C@]4(C=C[C@H](C)[C@@H](C5CCCCC5)O4)O3)OC(=O)[C@@H]3C=C(C)[C@@H](O)[C@H]4OC/C(=C\C=C\[C@@H]2C)[C@]43O)O[C@@H](C)[C@@H]1O [Doramectin monosaccharide]
Pf_72h_%Growth_Rep1 [1, 10]: 77.72% | Pf_72h_%Growth_Rep2 [1, 11]: 82.97% | Tg_72h_%Growth_Rep1 [2, 10]: 100.60% | Tg_72h_%Growth_Rep2 [2, 11]: 107.16% | Pf_120h_%Growth_Rep1 [3, 13]: 94.58% | Pf_120h_%Growth_Rep2 [3, 12]: 82.00%

C/C(=C\c1csc(C)n1)[C@@H]1C[C@@H]2O[C@]2(C)CCC[C@H](C)[C@H](O)[C@@H](C)C(=O)C(C)(C)[C@@H](O)CC(=O)O1 [Epothilone B]
activity at 2 µg/mL [1, 16]: 31.4% | activity at 2 µg/mL [1, 17]: -0.31% | percent parasite growth at 2 µg/mL ([2]; Toxoplasma gondii; library screen at 2 μg/mL, 72 h, % growth, replicate 1; read-out: Tg_72h_%Growth_Rep1): 5.99% | percent parasite growth at 2 µg/mL ([2]; Toxoplasma gondii; library screen at 2 μg/mL, 72 h, % growth, replicate 2; read-out: Tg_72h_%Growth_Rep2): 3.71% | activity at 2 µg/mL [3, 18]: 5.18% | activity at 2 µg/mL [3, 19]: 3.63%

O=c1c(-c2ccc(O)cc2)coc2cc(O)cc(O)c12 [Genistein]
activity at 2 µg/mL [1, 16]: 88.5% | activity at 2 µg/mL [1, 17]: 42.1% | percent parasite growth at 2 µg/mL ([2]; Toxoplasma gondii, 72 h, library screen at 2 μg/mL, 72 h, % growth, replicate 1; read-out: Tg_72h_%Growth_Rep1): 80.3% | percent parasite growth at 2 µg/mL ([2]; Toxoplasma gondii, 72 h, library screen at 2 μg/mL, 72 h, % growth, replicate 2; read-out: Tg_72h_%Growth_Rep2): 72.4% | activity at 2 µg/mL [3, 18]: 89.5% | activity at 2 µg/mL [3, 19]: 111%

CC(C)=CC(=O)C[C@H](C)c1ccc(C)cc1 [Turmerone]
Pf_72h_%Growth_Rep1 [1, 4]: 81.95% | Pf_72h_%Growth_Rep2 [1, 5]: 115.94% | Tg_72h_%Growth_Rep1 [2, 6]: 108.84% | Tg_72h_%Growth_Rep2 [2, 7]: 94.24% | Pf_120h_%Growth_Rep1 [3, 8]: 78.99% | Pf_120h_%Growth_Rep2 [3, 9]: 84.67%

Nc1ncnc2c1ccn2[C@@H]1O[C@H](CO)[C@@H](O)[C@H]1O [Tubercidin]
activity at 2 µg/mL ([1]; 3D7, 72 h, P. falciparum, 72 h, screen at 2 μg/mL, replicate 1, read-out: Pf_72h_%Growth_Rep1): 7.17% | activity at 2 µg/mL ([1]; 3D7, 72 h, P. falciparum, 72 h, screen at 2 μg/mL, replicate 2, read-out: Pf_72h_%Growth_Rep2): 7.42% | percent parasite growth at 2 µg/mL [2, 14]: 3.92% | percent parasite growth at 2 µg/mL [2, 15]: 3.05% | activity at 2 µg/mL ([3]; 3D7, 120 h, P. falciparum, 120 h, screen at 2 μg/mL, replicate 1, read-out: Pf_120h_%Growth_Rep1): 40.9% | activity at 2 µg/mL ([3]; 3D7, 120 h, P. falciparum, 120 h, screen at 2 μg/mL, replicate 2, read-out: Pf_120h_%Growth_Rep2): 12.8%

C[C@H]1CCC[C@H](O)CCCCCc2cc(O)cc(O)c2C(=O)O1 [Zearalanol, alpha-]
Pf_72h_%Growth_Rep1 [1, 4]: 80.84% | Pf_72h_%Growth_Rep2 [1, 5]: 78.13% | Tg_72h_%Growth_Rep1 [2, 6]: 162.37% | Tg_72h_%Growth_Rep2 [2, 7]: 92.02% | Pf_120h_%Growth_Rep1 [3, 8]: 88.76% | Pf_120h_%Growth_Rep2 [3, 9]: 84.84%

CCCC[C@@H](C)[C@@H](OC(=O)C[C@@H](CC(=O)O)C(=O)O)[C@H](C[C@@H](C)CCCCCC[C@@H](O)C[C@H](O)[C@H](C)N)OC(=O)C[C@@H](CC(=O)O)C(=O)O [Fumonisin B2]
Pf_72h_%Growth_Rep1 [1, 10]: 86.29% | Pf_72h_%Growth_Rep2 [1, 11]: 114.27% | Tg_72h_%Growth_Rep1 [2, 10]: 118.32% | Tg_72h_%Growth_Rep2 [2, 11]: 95.97% | Pf_120h_%Growth_Rep1 [3, 13]: 88.54% | Pf_120h_%Growth_Rep2 [3, 12]: 108.75%

Chaetomin
Pf_72h_%Growth_Rep1 [1, 4]: 58.72% | Pf_72h_%Growth_Rep2 [1, 5]: 55.68% | Tg_72h_%Growth_Rep1 [2, 6]: 114.47% | Tg_72h_%Growth_Rep2 [2, 7]: 90.87% | Pf_120h_%Growth_Rep1 [3, 8]: 45.75% | Pf_120h_%Growth_Rep2 [3, 9]: 45.66%

CC(=O)N[C@H](CO)[C@H](O)c1ccc([N+](=O)[O-])cc1 [Corynecin I]
Pf_72h_%Growth_Rep1 [1, 4]: 83.09% | Pf_72h_%Growth_Rep2 [1, 5]: 83.78% | Tg_72h_%Growth_Rep1 [2, 6]: 123.69% | Tg_72h_%Growth_Rep2 [2, 7]: 87.57% | Pf_120h_%Growth_Rep1 [3, 8]: 83.28% | Pf_120h_%Growth_Rep2 [3, 9]: 82.34%
